Results on 74 compounds are retold here after PubChem BioAssay AID1996.

Values after ≈ are worked out from the molar mass of the structure shown.

The conditions of the data set: buffer; pH 7.4; 200.0 µM.
Broadly, the solubility (kinetic) is the concentration staying in solution when a stock, usually in DMSO, is diluted into the medium. Consider `CC(C)CCN1CCN(Cc2cc3ccccc3[nH]2)CC1CCO` (centres undefined), for which the solubility (kinetic) is 39.3 µg/mL (≈ 119 µM). Under `CCc1ccc(C(C)NC(=O)C2CCCO2)cc1` (centres undefined) stands 34.9 µg/mL (≈ 141 µM); under `O=C(Nc1ccccc1C(=O)NCCCN1CCOCC1)c1ccc(F)cc1F`, 59.6 µg/mL (≈ 148 µM); under `CNC(=O)C(=O)NCCCN1CCOCC1`, greater than 34.4 µg/mL. The value for `CC1=C(C#N)C(c2ccc(O)cc2)C(C#N)=C(C)N1` was greater than 37.7 µg/mL. In turn, `NC(=O)C1CCN(C(=O)Nc2csc3ccccc23)CC1` gave a solubility (kinetic) of 42 µg/mL (≈ 138 µM).

On to `CC(=O)c1c(C)[nH]c(C(=O)NCCc2c[nH]c3ccccc23)c1C`, for which the kinetic solubility came to 1.4 µg/mL (≈ 4.33 µM). Consider `COc1ccc(NC(=O)c2oc3ccccc3c2CSC)cc1S(=O)(=O)N1CCOCC1`, for which the kinetic solubility is 3.8 µg/mL (≈ 7.97 µM). Under `Cc1ccc(S(=O)(=O)Nc2ccc(Nc3ccccc3)cc2)cc1` stands 2.5 µg/mL (≈ 7.39 µM). The value for `CCC1(C)NC(C(=O)O)Cc2c1[nH]c1ccccc21` (centres undefined) was greater than 38.7 µg/mL; that for `CCC(NC(=O)C1CCCC1)c1ccc(C)cc1` (centres undefined) was 34.8 µg/mL (≈ 142 µM); that for `NC(=O)c1ccc(=O)n(Cc2ccc(Cl)cc2Cl)c1` was greater than 44.6 µg/mL.

Take `Cc1ccc(S(N)(=O)=O)cc1NC(=O)/C=C/c1ccc2c(c1)OCO2`: the solubility (kinetic) was determined as 2.1 µg/mL (≈ 5.83 µM). Compound `O=C(NCCc1ccccc1F)C1CC(=O)N(c2ccccc2)C1` (centres undefined) had a solubility (kinetic) of 47.8 µg/mL (≈ 146 µM). The value for `O=C(Nc1ccccc1)OC1CCCCc2cccnc21` (centres undefined) was 41.6 µg/mL (≈ 147 µM). For the compound `O=[N+]([O-])c1cccc(-c2noc(COc3ccccc3)n2)c1`, the kinetic solubility came out at 0.9 µg/mL (≈ 3.03 µM).

In the case of `CCOC(=O)c1c(C)[nH]c(C(=O)OCC(=O)NCc2ccc(C)cc2)c1C`, the solubility (kinetic) worked out at 2.6 µg/mL (≈ 6.98 µM). Under `COc1ccc(Nc2oc(-c3ccc(F)cc3)nc2C#N)cc1` stands less than 0.2 µg/mL; under `O=C(CSc1ccc([N+](=O)[O-])cc1)Nc1ccccc1N1CCOCC1`, 4.9 µg/mL (≈ 13.1 µM). Under `CCOc1ccccc1NC(=O)CNC(=O)Cc1ccccc1` stands 46.8 µg/mL (≈ 150 µM). With `O=C(c1cc(N2CCOCC2)c(F)cc1[N+](=O)[O-])N1CCOCC1`, the kinetic solubility was found to be 48 µg/mL (≈ 141 µM). Under `O=C(Cc1ccsc1)Nc1cc(F)ccc1F` stands greater than 38 µg/mL. Under `O=C(O)Cc1c[nH]c2ccc(O)cc12` stands greater than 28.7 µg/mL; under `CCc1ccc(N2CN=c3s/c(=C\c4ccccc4)c(=O)n3C2)cc1`, 8.2 µg/mL (≈ 23.5 µM). Under `CCOCCCNc1ccc(N2C(=O)CCCC2=O)cc1[N+](=O)[O-]` stands greater than 50.3 µg/mL. The compound `Cc1ccc(CN2CCC(NC(=O)c3ccccc3)CC2)cc1` registered a solubility (kinetic) greater than 46.3 µg/mL.

In the case of `COc1ccc(C(=O)N2CCC3(CC2)NCCc2[nH]cnc23)cc1`, the kinetic solubility was greater than 49 µg/mL. Under `Nc1ncc2c(n1)CCN(c1ccc([N+](=O)[O-])cc1)C2` stands 5.9 µg/mL (≈ 21.7 µM); under `Clc1ccccc1-c1nc(-c2ccncc2)no1`, 7 µg/mL (≈ 27.2 µM); under `COc1ccc(OCC(=O)C2CC2)c(C#N)c1`, 27.5 µg/mL (≈ 119 µM). Under `CCN(Cc1ccccc1)C(=O)CSc1n[nH]c(N)n1` stands greater than 43.7 µg/mL; under `CCC1CN(C(=O)NCc2ccccc2)c2cc(C)ccc2O1` (centres undefined), 3.8 µg/mL (≈ 12.2 µM); under `CN(c1ccc(C(=O)Nc2cccnc2)cc1)S(=O)(=O)c1ccccc1`, greater than 55.1 µg/mL.

On to `Cc1cc(C)cc(NC(=O)CNC(c2ccccc2)c2ccccc2)c1`, for which the kinetic solubility turned out to be 1.1 µg/mL (≈ 3.19 µM). Under `FC(F)Oc1ccccc1NC(=S)Nc1cccnc1` stands 43.8 µg/mL (≈ 148 µM); under `CCC(=O)NC(c1ccccc1)c1c(OC(C)=O)ccc2ccccc12` (centres undefined), greater than 52.1 µg/mL. The value for `COc1ccc(OC)c(C(=O)COC(=O)c2ccc([N+](=O)[O-])o2)c1` was greater than 50.3 µg/mL. Regarding `COc1ccccc1CNC(=O)CN(C)CC(=O)Nc1ccc(F)c(F)c1F`, the kinetic solubility is greater than 59.3 µg/mL. The value for `Cc1ccc(C)c(NC(=S)NCCCN2CCOCC2)c1` was greater than 46.1 µg/mL. Under `O=C(COC(=O)CNC(=O)c1ccc(Cl)cc1Cl)NC1CC1` stands greater than 51.8 µg/mL. The compound `Nc1ccc(-c2nc3ccc(N)cc3s2)cc1` showed a solubility (kinetic) of 17.7 µg/mL (≈ 73.3 µM). The value for `O=C(N[C@H]1CC1c1ccccc1)c1ccc([N+](=O)[O-])cc1` (some centres undefined) was 1.6 µg/mL (≈ 5.67 µM); that for `COc1cc(SC)ccc1C(=O)OCC(=O)NCC(C)C` was greater than 46.7 µg/mL. `CCCCC(=O)NC(c1ccccc1)c1ccc2cccnc2c1O` (centres undefined) yielded a kinetic solubility of less than 0.4 µg/mL.

Consider `O=C(Cn1cnc([N+](=O)[O-])n1)NC1CC1`, for which the solubility (kinetic) was greater than 31.7 µg/mL.

As to `CCOCCN(C(=O)c1ccccc1Cl)c1cccc(C)c1C`, the kinetic solubility was greater than 49.8 µg/mL. Under `COC(=O)[C@H](CC(C)C)NC(=O)Nc1ccc(F)cc1` stands greater than 42.3 µg/mL. The value for `CN(C)CC[n+]1ccc(C(=O)c2ccccc2)cc1.Cl.[Cl-]` was greater than 49.1 µg/mL; that for `COc1nc(N(C)C)nc(N(C#N)CCOC(C)=O)n1` was greater than 42 µg/mL; that for `O=C1OC(c2ccc(F)cc2)=N/C1=C\c1ccc(Br)o1` was 9.6 µg/mL (≈ 28.6 µM).

Consider `Cc1ccccc1NC(=S)NNC(=O)c1ccncc1`, for which the solubility (kinetic) is greater than 43 µg/mL. Turning to `Cc1[nH]c2ccccc2c1C(c1ccncc1)N1CCCCC1` (centres undefined), the kinetic solubility is greater than 45.8 µg/mL. The value for `COc1cccc(N2CCN(c3ccc(S(=O)(=O)N4CCN(C)CC4)cc3[N+](=O)[O-])CC2)c1` was 11.9 µg/mL (≈ 25 µM); that for `Cc1cnc(NC(=O)Nc2ccccc2)c(C)n1` was 32 µg/mL (≈ 132 µM); that for `COc1ccccc1C1NC(=O)c2ccccc2O1` (centres undefined) was greater than 38.3 µg/mL. Under `CN(C)C(=O)Nc1ccccc1` stands greater than 24.6 µg/mL; under `CC(Sc1nccn1C)C(=O)Nc1ccc(Cl)cn1` (centres undefined), greater than 44.5 µg/mL; under `Cc1cc(C)c(NC(=O)COC(=O)C23CC4CC(CC(O)(C4)C2)C3)c(Cl)c1`, greater than 58.8 µg/mL. The value for `CCCNC(=O)N1CCN(C(c2ccccc2)c2ccccc2)CC1` was 3.9 µg/mL (≈ 11.6 µM); that for `O=C(CN1CCN(c2ccccn2)CC1)Nc1ccc(F)cc1F` was greater than 49.9 µg/mL. `COc1cccc(NC(=O)COC(=O)CCSc2ccccc2)c1` gave a kinetic solubility of 39.8 µg/mL (≈ 115 µM). The value for `O=S(=O)(NCC1CC1)c1cc(Cl)cc(Cl)c1` was 10.2 µg/mL (≈ 36.4 µM). The compound `Nc1nc(NCC2CCCO2)nc(Nc2cccc(F)c2)c1[N+](=O)[O-]` (centres undefined) displayed a kinetic solubility of less than 0.1 µg/mL.

As for `CC1(C)CC(=O)C=C(Nc2ccc(C(=O)O)c(O)c2)C1`, the kinetic solubility was greater than 41.3 µg/mL.

In turn, `CCCCC1=NN(C(=O)c2ccncc2)C(O)(C(F)(F)F)C1` (centres undefined) returned a kinetic solubility greater than 47.3 µg/mL.

For `Cc1cc(C)c(NC(=O)CN2C(=O)NC3(CCc4ccccc43)C2=O)c(Cl)c1` (centres undefined), the solubility (kinetic) was found to be 33.1 µg/mL (≈ 83.2 µM).

Turning to `CCC(=O)N(Cc1cc(=O)[nH]c2ccccc12)c1ccccc1OC`, the solubility (kinetic) is greater than 50.5 µg/mL. Under `Cc1c(C)n(Cc2ccccc2)c2ccc(C(=O)O)cc12` stands greater than 41.9 µg/mL; under `Clc1ccc2scc(CN3CCCC3)c2c1`, 35.3 µg/mL (≈ 140 µM); under `O=C(N/N=C/c1cccnc1)c1ccccc1Br`, greater than 45.6 µg/mL. Under `CC1=C([N+](=O)[O-])C(c2ccccc2Cl)NC(=O)N1` (centres undefined) stands greater than 40.2 µg/mL.

Compound `CCCn1c(C)nnc1SCC(=O)NC1CCCCC1` gave a solubility (kinetic) greater than 44.5 µg/mL. The value for `COc1ccc(-c2cc(C(=O)NC3CCCC3)no2)cc1` was 0.4 µg/mL (≈ 1.4 µM); that for `COc1ccc(CC(=O)Nc2nc3ccccc3[nH]2)cc1` was 0.7 µg/mL (≈ 2.49 µM).
